Measurements from patent publication US4167580A, “Compositions and method of use to treat arthritic disease with m-fluorobenzimidoylacetonitrile” (American Cyanamid Company, priority 1978, dated 1979).

Experiments:
[1] = test system: Carrageenin Induced Edema of the Rat Paw; test: Carrageenin induced edema of the rat paw (acute anti-inflammatory activity); type: in vivo, Royal Hart, Wistar strain rats; conditions: 5 hours after drug (4 hours after carrageenin)
Description: In determining the acute anti-inflammatory activity of benzimidoylacetonitrile, Royal Hart, Wistar strain rats ranging in weight from 80 to 90 grams were used. The rats were fasted overnight prior to dosing but had free access to water. The compound was administered in aqueous suspension, by gavage, in a volume of 1.7 ml. per 50 grams of rat [corresponds by hydration volume used by Winter et al., Proc. Soc. […] The phlogistic agent used was carrageenin prepared as a sterile 1% suspension in 0.9% aqueous sodium chloride for routine testing. A volume of 0.05 ml. was injected through a 26 gauge needle into the planter tissue of the right hind paw. Measurements were made 5 hours after drug administration (4 hours after carrageenin challenge). Volumes of both the normal and carrageenin inflamed feet were determined. The difference between the two measurements is considered to be the increased edema due to the carrageenin administration.

[2] = test system: Body Temperature of Pyretic Rats; test: Body temperature in yeast induced pyrexia; type: in vivo, Royal Hart, Wistar strain rats; conditions: 250 mg./kg. by gavage 17 hours after yeast; measured 19 hours post challenge
Description: The effect of benzimidoylacetonitrile on body temperature in yeast induced pyrexia was determined by the following procedure. Groups of three Royal Hart, Wistar strain rats weighing 80±5 grams were injected subcutaneously in the nape of the neck with 0.6 ml. of a 40% suspension of dried brewers yeast in distilled water. […] At 19 hours post challenge the rectal temperature of each rat was measured with an electric thermometer. Each dose response experiment was replicated one or more times.

[3] = test system: Adjuvant Arthritis in Rats; test: Adjuvant induced arthritis in rats (chronic inflammation with joint destruction); type: in vivo, Royal Hart, Wistar strain rats; conditions: once daily days 0-13
Source text: Adjuvant induced experimental polyarthritis is a specific systemic disease of the rat which shares interesting similarities with rheumatoid arthritis. Specifically, the histology of the two diseases bears a remarkable resemblance as shown by C. M. Pearson et al., Am. J. Pathol. 42, 73 (1963). E. M. Glenn, Am. J. Vet. Res. 27 (116), 339 (1966) has classified adjuvant induced polyarthritis as a crippling and permanent deformity resulting from diffuse connective tissue involvement around certain susceptible joints in the rat. Zahiri et al., Can. Med. Ass. J. 101, 269 (1969) have shown that the fusiform swelling of the distal joints is associated with edema, congestion and synovitis including pannus formation, all of which precede the ultimate destruction of bone and cartilage. Furthermore, Zahiri et al. indicate that the cartilage destruction in the joint is due to an invasive pannus which originates in the marginal synovium and extends across the articular surface to erode it. […] See S. Wong et al., J. Pharm. & Exptl. Ther. 185, 127 (1973) and G. R. Bobalick et al., Agents & Actions 4, 364 (1974). In a similar manner, inhibition of the progress of arthritis in paws of rats treated with the compounds of this invention also lessens associated joint deterioration.
Groups of three Royal Hart, Wistar strain rats weighing 200±10 grams each were injected intradermally in the right hind paw with Freund's adjuvant (dried human tubercle bacilli in a mineral oil vehicle) at a dose of 2 mg./kg. of body weight. Test compounds were administered orally in a 1.5% staruh vehicle at various doses once daily on days 0 through 13 post challenge. Control rats were treated in a similar manner, but given only starch vehicle. On the 14th and 21st day post challenge the diameter of the injected paw (primary lesion) was measured by micrometer caliper. The volume of inflamed paws were estimated from these measurements and the results are expressed as percent inhibition of swelling as compared to controls. At the same time, the other inflamed sites, such as ears, paws and tail (secondary lesions) were observed and each rat was graded as to degree of inflammation and swelling present. The grading is based on a scale of 0 to 24, where 0 represents a complete absence of induced arthritic nodules and 24 represents the maximum degree of inflammation. The mean grade for each treated group is calculated and the effects of each compound are expressed as percent inhibition of the control grade. Table III records the results of these tests conducted with benzimidoylacetonitrile, m-fluorobenzimidoylacetonitrile and p-fluorobenzimidoylacetonitrile and known anti-inflammatory agents. The active compounds of the present invention suppress the progression of the arthritis and associated joint deterioration. Of particular interest is the low mortality observed with benzimidoylacetonitrile treated rats relative to either controls or rats treated with standard compounds.

Erythema in Guinea Pigs = test: Ultraviolet induced erythema in guinea pigs, topical application; type: in vivo, Albino guinea pigs
Description: Albino guinea pigs were depilitated on their flanks, the evening before testing, with a standard mixture of barium sulfide and gum acacia. On the morning of the test at 0 hour they were restrained in a plastic container which allows exposure of 3 circular spots. They were then exposed to ultraviolet irradiation from a "Hanovia" Kromayer lamp, model 10, for 60 seconds. Immediately after exposure to ultraviolet light, the guinea pigs were treated by dissolving the test compound in ethyl alcohol at various concentrations and swabbing the UV exposed areas with the aid of a cottom tipped applicator stick. At one and four hours, the degree of erythema for each of the three sites was assessed according to the following scoring system: 0=no erythema, 0.5=incomplete circle or faint erythema and 1.0=complete circle of distinct erythema. Thus, the maximum score for each animal was 3.0.

arthritic paw swelling = conditions: Wong et al. 1973; Bobalick et al. 1974; cited from earlier work
[4] = 1% in ethyl alcohol, maximum score 3.0, ethyl alcohol control 2.5
[5] = 1% in ethyl alcohol, maximum score 3.0, ethyl alcohol control 3.0

COc1ccc2c(c1)c(CC(=O)O)c(C)n2C(=O)c1ccc(Cl)cc1 [Indomethacin]
C/T Edema Ratio (edema of control animals/edema of treated animals) ([1]; 25 mg./kg. by gavage): 2.9 | Decrease In Body Temp. [2]: 2.5 °C | % Inhibition of Control Grade (secondary lesion), Day 14 ([3]; 0.25 mg./kg. oral): 22% | % Inhibition of Control Grade (secondary lesion), Day 21 ([3]; 0.25 mg./kg. oral): 4% | % Inhibition of Swelling (primary lesion), Day 14 ([3]; 0.25 mg./kg. oral): 30% | % Inhibition of Swelling (primary lesion), Day 21 ([3]; 0.25 mg./kg. oral): 4% | Dead/Treated At 21 Days ([3]; 0.25 mg./kg. oral): 0/9 | Mean Weight Gain, Day 14 ([3]; 0.25 mg./kg. oral): 51 grams | Mean Weight Gain, Day 21 ([3]; 0.25 mg./kg. oral): 57 grams | % Inhibition of Control Grade (secondary lesion), Day 14 ([3]; 0.5 mg./kg. oral): 25% | % Inhibition of Control Grade (secondary lesion), Day 21 ([3]; 0.5 mg./kg. oral): 17% | % Inhibition of Swelling (primary lesion), Day 14 ([3]; 0.5 mg./kg. oral): 40% | % Inhibition of Swelling (primary lesion), Day 21 ([3]; 0.5 mg./kg. oral): 20% | Dead/Treated At 21 Days ([3]; 0.5 mg./kg. oral): 5/54 | Mean Weight Gain, Day 14 ([3]; 0.5 mg./kg. oral): 53 grams | Mean Weight Gain, Day 21 ([3]; 0.5 mg./kg. oral): 51 grams | % Inhibition of Control Grade (secondary lesion), Day 14 ([3]; 1 mg./kg. oral): 34% | % Inhibition of Control Grade (secondary lesion), Day 21 ([3]; 1 mg./kg. oral): 20% | % Inhibition of Swelling (primary lesion), Day 14 ([3]; 1 mg./kg. oral): 46% | % Inhibition of Swelling (primary lesion), Day 21 ([3]; 1 mg./kg. oral): 19% | Dead/Treated At 21 Days ([3]; 1 mg./kg. oral): 9/54 | Mean Weight Gain, Day 14 ([3]; 1 mg./kg. oral): 63 grams | Mean Weight Gain, Day 21 ([3]; 1 mg./kg. oral): 65 grams | % Inhibition of Control Grade (secondary lesion), Day 14 ([3]; 2 mg./kg. oral): 38% | % Inhibition of Control Grade (secondary lesion), Day 21 ([3]; 2 mg./kg. oral): 25% | % Inhibition of Swelling (primary lesion), Day 14 ([3]; 2 mg./kg. oral): 51% | % Inhibition of Swelling (primary lesion), Day 21 ([3]; 2 mg./kg. oral): 24% | Dead/Treated At 21 Days ([3]; 2 mg./kg. oral): 8/57 | Mean Weight Gain, Day 14 ([3]; 2 mg./kg. oral): 68 grams | Mean Weight Gain, Day 21 ([3]; 2 mg./kg. oral): 68 grams | Erythema Score (Avg.) 1 Hr. (Erythema in Guinea Pigs; 0.25% in ethyl alcohol, maximum score 3.0, control 2.5): 1.8 | Erythema Score (Avg.) 4 Hr. (Erythema in Guinea Pigs; 0.25% in ethyl alcohol, maximum score 3.0, control 3.0): 2.5 | Erythema Score (Avg.) 1 Hr. (Erythema in Guinea Pigs; 0.5% in ethyl alcohol, maximum score 3.0, control 2.5): 1.5 | Erythema Score (Avg.) 4 Hr. (Erythema in Guinea Pigs; 0.5% in ethyl alcohol, maximum score 3.0, control 3.0): 2.4 | Erythema Score (Avg.) 1 Hr. (Erythema in Guinea Pigs; [4]): 0.7 | Erythema Score (Avg.) 4 Hr. (Erythema in Guinea Pigs; [5]): 2.5 | arthritic paw swelling (in words) (arthritic paw swelling): inhibit arthritic paw swelling | joint and bone deterioration (in words) (arthritic paw swelling): prevent joint and bone deterioration

CC(=O)Oc1ccccc1C(=O)O [Aspirin]
C/T Edema Ratio (edema of control animals/edema of treated animals) ([1]; 250 mg./kg. by gavage): 2.8 | Decrease In Body Temp. [2]: 1.5 °C | % Inhibition of Control Grade (secondary lesion), Day 14 ([3]; 50 mg./kg. oral): 12% | % Inhibition of Control Grade (secondary lesion), Day 21 ([3]; 50 mg./kg. oral): 9% | % Inhibition of Swelling (primary lesion), Day 14 ([3]; 50 mg./kg. oral): 23% | % Inhibition of Swelling (primary lesion), Day 21 ([3]; 50 mg./kg. oral): 3% | Dead/Treated At 21 Days ([3]; 50 mg./kg. oral): 2/21 | Mean Weight Gain, Day 14 ([3]; 50 mg./kg. oral): 56 grams | Mean Weight Gain, Day 21 ([3]; 50 mg./kg. oral): 44 grams | % Inhibition of Control Grade (secondary lesion), Day 14 ([3]; 100 mg./kg. oral): 19% | % Inhibition of Control Grade (secondary lesion), Day 21 ([3]; 100 mg./kg. oral): 8% | % Inhibition of Swelling (primary lesion), Day 14 ([3]; 100 mg./kg. oral): 36% | % Inhibition of Swelling (primary lesion), Day 21 ([3]; 100 mg./kg. oral): 13% | Dead/Treated At 21 Days ([3]; 100 mg./kg. oral): 18/63 | Mean Weight Gain, Day 14 ([3]; 100 mg./kg. oral): 48 grams | Mean Weight Gain, Day 21 ([3]; 100 mg./kg. oral): 53 grams | % Inhibition of Control Grade (secondary lesion), Day 14 ([3]; 200 mg./kg. oral): 26% | % Inhibition of Control Grade (secondary lesion), Day 21 ([3]; 200 mg./kg. oral): 17% | % Inhibition of Swelling (primary lesion), Day 14 ([3]; 200 mg./kg. oral): 48% | % Inhibition of Swelling (primary lesion), Day 21 ([3]; 200 mg./kg. oral): 27% | Dead/Treated At 21 Days ([3]; 200 mg./kg. oral): 10/66 | Mean Weight Gain, Day 14 ([3]; 200 mg./kg. oral): 40 grams | Mean Weight Gain, Day 21 ([3]; 200 mg./kg. oral): 44 grams | % Inhibition of Control Grade (secondary lesion), Day 14 ([3]; 400 mg./kg. oral): 58% | % Inhibition of Control Grade (secondary lesion), Day 21 ([3]; 400 mg./kg. oral): 45% | % Inhibition of Swelling (primary lesion), Day 14 ([3]; 400 mg./kg. oral): 73% | % Inhibition of Swelling (primary lesion), Day 21 ([3]; 400 mg./kg. oral): 48% | Dead/Treated At 21 Days ([3]; 400 mg./kg. oral): 19/57 | Mean Weight Gain, Day 14 ([3]; 400 mg./kg. oral): 41 grams | Mean Weight Gain, Day 21 ([3]; 400 mg./kg. oral): 55 grams | Erythema Score (Avg.) 1 Hr. (Erythema in Guinea Pigs; [4]): 1.9 | Erythema Score (Avg.) 4 Hr. (Erythema in Guinea Pigs; [5]): 2.8
